Assays:
[1] = tested on: T47D (PI3Kα-H1047R) cell line; assay: HTRF phospho-AKT(S473) cell assay in T47D cells; assay type: cell-based, human; conditions: Homo sapiens, 2 hours compound incubation
In short: (§1)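 pAKT(S473) in lysates read by HTRF after a 2 h, 37 °C compound exposure (12-point 1:3 series, max 0.5% DMSO). SKBR3 (wild type, top 10 μM) received 70 ng/ml PDGF-BB during the final 15 min; T47D (H1047R, top 5 μM) was unstimulated. IC50 values derived from the dose-response.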

[2] = tested on: SKBR3 (PI3Kα-Wild Type) cell line; assay: HTRF phospho-AKT(S473) cell assay in SKBR3 cells; assay type: cell-based, human; conditions: Homo sapiens, SK-BR-3, 2 hours compound incubation, PDGF-BB stimulated
In short: as §1

[3] = HTRF phospho-AKT(S473), T47D (PI3Kα-H1047R) cells
[4] = HTRF phospho-AKT(S473), SKBR3 (PI3Kα-Wild Type) cells
[5] = T47D (PI3Kα-H1047R) cells, HTRF phospho-AKT(S473)
[6] = SKBR3 (PI3Kα-Wild Type) cells, HTRF phospho-AKT(S473)

SMILES | IC50 [1, 3] | IC50 [2, 4] | IC50 [1, 5] | IC50 [2, 6] | also measured
Cc1cc([C@@H](C)Nc2ccc(Cl)nc2C(=O)NS(C)(=O)=O)c2nc([C@H]3[C@@H]4CN(c5ccnc(C)n5)C[C@@H]43)n(C)c(=O)c2c1 [Compound 853, 6-chloro-3-(((R)-1-(3,6-dimethyl-2-((1R,5S,6r)-3-(2-methylpyrimidin-4-yl)-3-azabicyclo[3.1.0]hexan-6-yl)-4-oxo-3,4-dihydroquinazolin-8-yl)ethyl)amino)-N-(methylsulfonyl) picolinamide] |  |  |  |  | IC50 ([1]; T47D (PI3Kα-H1047R) cell line, phospho-AKT(S473) HTRF): 250 to 500 nM; IC50 ([2]; SKBR3 (PI3Kα-Wild Type) cell line, phospho-AKT(S473) HTRF): ≥ 5 µM
Cc1cc([C@@H](C)Nc2ccc(Cl)nc2C(=O)NS(C)(=O)=O)c2nc(N3CC[C@H](Oc4ccc(C)nn4)C3)n(C)c(=O)c2c1 [Compound 527, 6-chloro-3-(((R)-1-(3,6-dimethyl-2-((S)-3-((6-methylpyridazin-3-yl)oxy)pyrrolidin-1-yl)-4-oxo-3,4-dihydroquinazolin-8-yl)ethyl)amino)-N-(methylsulfonyl) picolinamide] | < 250 nM | 1 to 5 µM |  |  | 
Cc1cc([C@@H](C)Nc2ccc(Cl)nc2C(=O)NS(C)(=O)=O)c2nc([C@@H]3CCCN(c4ccccn4)C3)n(C)c(=O)c2c1 (relative stereo) [Compound 212, 6-chloro-3-(((R)-1-(3,6-dimethyl-4-oxo-2-((R*)-1-(pyridin-2-yl)piperidin-3-yl)-3,4-dihydroquinazolin-8-yl)ethyl)amino)-N-(methylsulfonyl) picolinamide] |  |  | < 250 nM | 1 to 5 µM | 
Cc1cc([C@@H](C)Nc2ccc(Cl)nc2C(=O)NS(C)(=O)=O)c2nc(N3CC[C@@H](Oc4ccc(F)cc4)C3)n(C)c(=O)c2c1 [Compound 203, 6-chloro-3-(((R)-1-(2-((R)-3-(4-fluorophenoxy)pyrrolidin-1-yl)-3,6-dimethyl-4-oxo-3,4-dihydroquinazolin-8-yl)ethyl)amino)-N-(methylsulfonyl) picolinamide] |  |  | < 250 nM | 1 to 5 µM | 
Cc1cc([C@@H](C)Nc2ccc(Cl)nc2C(=O)NS(C)(=O)=O)c2nc(N3Cc4n[nH]c(N)c4C3)n(C)c(=O)c2c1 [Compound 148, (R)-3-((1-(2-(3-amino-2,6-dihydropyrrolo[3,4-c]pyrazol-5(4H)-yl)-3,6-dimethyl-4-oxo-3,4-dihydroquinazolin-8-yl)ethyl)amino)-6-chloro-N-(methylsulfonyl) picolinamide] |  |  | 1000 to 5000 nM | ≥ 5 µM | 
Cc1cc([C@@H](C)Nc2ccc(Cl)nc2C(=O)NS(C)(=O)=O)c2nc(N3CCC4(CCCCOC4)CC3)n(C)c(=O)c2c1 [Compound 328, (R)-6-chloro-3-((1-(3,6-dimethyl-4-oxo-2-(8-oxa-3-azaspiro[5.6]dodecan-3-yl)-3,4-dihydroquinazolin-8-yl)ethyl)amino)-N-(methylsulfonyl) picolinamide] |  |  | 250 to 500 nM | ≥ 5 µM | 
C[C@@H](Nc1ccc(Cl)nc1C(=O)NS(C)(=O)=O)c1cc(F)cc2c(=O)n(C)c(N3CC[C@H](Oc4cnn(C)c4)C3)nc12 [Compound 388, 6-chloro-3-(((R)-1-(6-fluoro-3-methyl-2-((S)-3-((1-methyl-1H-pyrazol-4-yl)oxy)pyrrolidin-1-yl)-4-oxo-3,4-dihydroquinazolin-8-yl)ethyl)amino)-N-(methylsulfonyl) picolinamide] |  |  | < 250 nM | 1 to 5 µM | 
COc1ccnn1C1CCN(c2nc3c([C@@H](C)Nc4ccc(Cl)nc4C(=O)NS(C)(=O)=O)cc(C)cc3c(=O)n2C)CC1 [Compound 318, (R)-6-chloro-3-((1-(2-(4-(5-methoxy-1H-pyrazol-1-yl)piperidin-1-yl)-3,6-dimethyl-4-oxo-3,4-dihydroquinazolin-8-yl)ethyl)amino)-N-(methylsulfonyl) picolinamide] |  |  | < 250 nM | 1 to 5 µM | 
Cc1cc([C@@H](C)Nc2ccc(Cl)nc2C(=O)NS(C)(=O)=O)c2nc(N3CCC[C@@H](c4ccc(C)nc4)C3)n(C)c(=O)c2c1 (mixture of isomers) [Compound 215, 6-chloro-3-(((R)-1-(3,6-dimethyl-2-((RS)-3-(6-methylpyridin-3-yl)piperidin-1-yl)-4-oxo-3,4-dihydroquinazolin-8-yl)ethyl)amino)-N-(methylsulfonyl) picolinamide] |  |  | < 250 nM | 1 to 5 µM | 

Further lines, with some results ahead:

IC50 [1, 3] | IC50 [2, 4] | IC50 [1, 5] | IC50 [2, 6] | SMILES | also measured
250 to 500 nM | 1 to 5 µM |  |  | Cc1cc([C@@H](C)Nc2ccc(Cl)nc2C(=O)NS(C)(=O)=O)c2nc(N3C[C@@H]4C[C@H]3C[C@H]4c3nn(C)cc3F)n(C)c(=O)c2c1 (relative stereo) [Compound 761, 6-chloro-3-(((R)-1-(2-((1R*,4S*,5S*)-5-(4-fluoro-1-methyl-1H-pyrazol-3-yl)-2-azabicyclo[2.2.1]heptan-2-yl)-3,6-dimethyl-4-oxo-3,4-dihydroquinazolin-8-yl)ethyl)amino)-N-(methylsulfonyl) picolinamide] | 
250 to 500 nM | ≥ 5 µM |  |  | [2H]C([2H])([2H])n1nc([C@H]2[C@@H]3CN(c4nc5c([C@@H](C)Nc6ccc(Cl)nc6C(=O)NS(C)(=O)=O)cc(C)cc5c(=O)n4C)C[C@@H]32)c(Cl)c1C [Compound 661, 6-chloro-3-(((R)-1-(2-((1R,5S,6R)-6-(4-chloro-5-methyl-1-(methyl-d3)-1H-pyrazol-3-yl)-3-azabicyclo[3.1.0]hexan-3-yl)-3,6-dimethyl-4-oxo-3,4-dihydroquinazolin-8-yl)ethyl)amino)-N-(methylsulfonyl) picolinamide] | 
< 250 nM | 1 to 5 µM |  |  | Cc1cc([C@@H](C)Nc2ccc(Cl)nc2C(=O)NS(C)(=O)=O)c2nc(-c3cc(F)c4nn(C)cc4c3)n(C)c(=O)c2c1 [Compound 788, (R)-6-chloro-3-((1-(2-(7-fluoro-2-methyl-2H-indazol-5-yl)-3,6-dimethyl-4-oxo-3,4-dihydroquinazolin-8-yl)ethyl)amino)-N-(methylsulfonyl) picolinamide] | 
250 to 500 nM | 1 to 5 µM |  |  | Cc1cc([C@@H](C)Nc2ccc(Cl)nc2C(=O)NS(C)(=O)=O)c2nc(N3CCC(c4ncc(C)o4)CC3)n(C)c(=O)c2c1 [Compound 728, (R)-6-chloro-3-((1-(3,6-dimethyl-2-(4-(5-methyloxazol-2-yl)piperidin-1-yl)-4-oxo-3,4-dihydroquinazolin-8-yl)ethyl)amino)-N-(methylsulfonyl) picolinamide] | 
< 250 nM | 1 to 5 µM |  |  | Cc1cc([C@@H](C)Nc2ccc(Cl)nc2C(=O)NS(C)(=O)=O)c2nc(N3CCN(c4ccnc(C(F)F)n4)CC3)n(C)c(=O)c2c1 [Compound 649, (R)-6-chloro-3-((1-(2-(4-(2-(difluoromethyl)pyrimidin-4-yl)piperazin-1-yl)-3,6-dimethyl-4-oxo-3,4-dihydroquinazolin-8-yl)ethyl)amino)-N-(methylsulfonyl) picolinamide] | 
250 to 500 nM | ≥ 5 µM |  |  | Cc1cc([C@@H](C)Nc2ccc(Cl)nc2C(=O)NS(C)(=O)=O)c2nc(N3C[C@H]4C[C@@H]3CN4c3ccc(F)cn3)n(C)c(=O)c2c1 [Compound 602, 6-chloro-3-(((R)-1-(2-((1R,4R)-5-(5-fluoropyridin-2-yl)-2,5-diazabicyclo [2.2.1]heptan-2-yl)-3,6-dimethyl-4-oxo-3,4-dihydroquinazolin-8-yl)ethyl)amino)-N-(methylsulfonyl) picolinamide] | 
< 250 nM | 1 to 5 µM |  |  | Cc1cc([C@@H](C)Nc2ccc(Cl)nc2C(=O)NS(C)(=O)=O)c2nc(N3CCC(c4cnc(C)nc4)CC3)n(C3CC3)c(=O)c2c1 [Compound 607, (R)-6-chloro-3-((1-(3-cyclopropyl-6-methyl-2-(4-(2-methylpyrimidin-5-yl)piperidin-1-yl)-4-oxo-3,4-dihydroquinazolin-8-yl)ethyl)amino)-N-(methylsulfonyl) picolinamide] | 
250 to 500 nM | 1 to 5 µM |  |  | Cc1cc([C@@H](C)Nc2ccc(Cl)nc2C(=O)NS(C)(=O)=O)c2nc(N3Cc4cn(CC5CC5)nc4C3)n(C)c(=O)c2c1 [Compound 683, (R)-6-chloro-3-((1-(2-(2-(cyclopropylmethyl)-2,6-dihydropyrrolo[3,4-c]pyrazol-5(4H)-yl)-3,6-dimethyl-4-oxo-3,4-dihydroquinazolin-8-yl)ethyl)amino)-N-(methylsulfonyl) picolinamide] | 
250 to 500 nM | ≥ 5 µM |  |  | Cc1cc([C@@H](C)Nc2ccc(Cl)nc2C(=O)NS(C)(=O)=O)c2nc(N3CCN(c4cc(C)nc(C)n4)CC3)n(C)c(=O)c2c1 [Compound 617, (R)-6-chloro-3-((1-(2-(4-(2,6-dimethylpyrimidin-4-yl)piperazin-1-yl)-3,6-dimethyl-4-oxo-3,4-dihydroquinazolin-8-yl)ethyl)amino)-N-(methylsulfonyl) picolinamide] | 
250 to 500 nM | ≥ 5 µM |  |  | COc1cnc([C@H]2[C@@H]3CN(c4nc5c([C@@H](C)Nc6ccc(Cl)nc6C(=O)NS(C)(=O)=O)cc(C)cc5c(=O)n4C)C[C@@H]32)cn1 [Compound 641, 6-chloro-3-(((R)-1-(2-((1R,5S,6R)-6-(5-methoxypyrazin-2-yl)-3-azabicyclo[3.1.0]hexan-3-yl)-3,6-dimethyl-4-oxo-3,4-dihydroquinazolin-8-yl)ethyl)amino)-N-(methylsulfonyl) picolinamide] | 
